Source: patent publication US20110178094A1, “Oral Formulation” (H. LUNDBECK A/S, priority 2008, published 2011)

Assays:
[1] = tested on: preclinical models of cognitive dysfunctions; assay: Preclinical models of cognitive dysfunctions; format: in vivo
From the text: It is believed that the 5-HT6 receptor affinity of the compound of formula I is involved in the precognitive effects of the compound. Furthermore, it is believed that such pro-cognitive effect of the compound of formula I will be evident at a low level of D2 receptor occupancy, which is beneficial in terms of the side-effect profile.

5-HT2 receptor = conditions: reported in WO 2005/016900; cited from earlier work
dopamine D1 receptors = dopamine D1 receptors (Homo sapiens, UniProt P21728); conditions: reported in WO 2005/016900; cited from earlier work
[2] = Study of the compatibility of the excipients and the compound; format: physicochemical; conditions: components used in the tablet formulation
From the text: Based on this, a traditional wet granulation, tabletting and film-coating process was developed using standard methods and excipients.

dopamine D2 receptors = dopamine D2 receptors (Homo sapiens, UniProt P14416); conditions: reported in WO 2005/016900; cited from earlier work
[3] = tested on: condition avoidance response (CAR) model; assay: Condition avoidance response (CAR) model; format: in vivo; conditions: rats; at very low levels of D2 receptor occupancy
From the text: The compound of formula I is a putative antipsychotic compound with affinity for both dopamine D1 and D2 receptors.

α1 adrenoceptors = conditions: reported in WO 2005/016900; cited from earlier work

dopamine D1 receptors, sequence (P21728 whole entry): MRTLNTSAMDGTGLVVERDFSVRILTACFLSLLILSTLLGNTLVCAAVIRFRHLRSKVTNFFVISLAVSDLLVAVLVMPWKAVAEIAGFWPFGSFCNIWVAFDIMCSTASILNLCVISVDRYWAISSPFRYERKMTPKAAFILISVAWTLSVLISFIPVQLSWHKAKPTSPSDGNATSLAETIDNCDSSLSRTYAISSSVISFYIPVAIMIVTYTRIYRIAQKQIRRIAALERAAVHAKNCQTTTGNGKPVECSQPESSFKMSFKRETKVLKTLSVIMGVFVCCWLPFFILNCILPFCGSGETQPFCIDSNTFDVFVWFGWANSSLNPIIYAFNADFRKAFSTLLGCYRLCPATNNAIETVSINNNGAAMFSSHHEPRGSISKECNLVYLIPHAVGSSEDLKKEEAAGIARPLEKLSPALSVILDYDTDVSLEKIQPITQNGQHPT
dopamine D2 receptors, sequence (P14416 whole entry): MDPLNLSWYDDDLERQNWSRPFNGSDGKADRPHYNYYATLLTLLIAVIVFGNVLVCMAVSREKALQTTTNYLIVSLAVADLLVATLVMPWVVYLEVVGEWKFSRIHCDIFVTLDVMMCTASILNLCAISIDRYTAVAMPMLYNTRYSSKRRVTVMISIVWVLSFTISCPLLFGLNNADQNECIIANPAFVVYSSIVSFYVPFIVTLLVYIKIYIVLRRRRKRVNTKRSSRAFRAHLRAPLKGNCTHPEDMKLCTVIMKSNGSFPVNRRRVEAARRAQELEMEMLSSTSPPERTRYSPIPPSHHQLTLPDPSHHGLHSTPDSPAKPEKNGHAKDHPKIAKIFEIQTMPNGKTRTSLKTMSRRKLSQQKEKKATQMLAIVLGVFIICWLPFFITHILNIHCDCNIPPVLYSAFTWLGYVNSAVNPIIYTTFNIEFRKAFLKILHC

CN1CCN([C@@H]2C[C@@H](c3ccccc3)c3ccc(Cl)cc32)CC1(C)C [compound of formula I, 4-((1R,3S)-6-chloro-3-phenylindan-1-yl)-1,2,2-trimethylpiperazine]
cognition enhancing properties [1]: cognition enhancing properties
affinity for the 5-HT2 receptor (antagonist) (5-HT2 receptor): high affinity
affinity for dopamine D1 receptors (antagonist) (dopamine D1 receptors): high affinity
compatibility of the tablet excipients with the compound [2]: compatible
affinity for dopamine D2 receptors (antagonist) (dopamine D2 receptors): high affinity
antipsychotic activity in CAR model [3]: possesses antipsychotic activity
affinity for α1 adrenoceptors (α1 adrenoceptors): high affinity
